# Reference: PMC12597549 (Drug Metabolism and Disposition, 2025)
# Where a chain is given by its changes, count along the chain named. Entries after “also recorded” stand apart in the source; their conditions may differ. Where two headings read alike, the source gives them in different places.
# Legend:
# UGT2B7^268His = target: T1, UGT2B7^268His (Homo sapiens, UniProt P16662, Y268H); assay: Inhibition of hydromorphone glucuronidation (HM3G formation) by cannabinoids in rUGT2B7^268His microsomes; assay type: biochemical; conditions: for inhibition of HM3G formation: 100 μM cannabinoid, 400 μM hydromorphone, 2% BSA, vs vehicle control; for IC50: IC50 corrected for nonspecific binding (fu,inc from refs 32,33; 11-OH-THC fu,inc as surrogate for 7-OH-CBD and 7-COOH-CBD), mean ± SD
# T1 construct: expressed in transfected cells; microsomal membrane fraction
# T1 sequence (P16662 24-529 Y268H): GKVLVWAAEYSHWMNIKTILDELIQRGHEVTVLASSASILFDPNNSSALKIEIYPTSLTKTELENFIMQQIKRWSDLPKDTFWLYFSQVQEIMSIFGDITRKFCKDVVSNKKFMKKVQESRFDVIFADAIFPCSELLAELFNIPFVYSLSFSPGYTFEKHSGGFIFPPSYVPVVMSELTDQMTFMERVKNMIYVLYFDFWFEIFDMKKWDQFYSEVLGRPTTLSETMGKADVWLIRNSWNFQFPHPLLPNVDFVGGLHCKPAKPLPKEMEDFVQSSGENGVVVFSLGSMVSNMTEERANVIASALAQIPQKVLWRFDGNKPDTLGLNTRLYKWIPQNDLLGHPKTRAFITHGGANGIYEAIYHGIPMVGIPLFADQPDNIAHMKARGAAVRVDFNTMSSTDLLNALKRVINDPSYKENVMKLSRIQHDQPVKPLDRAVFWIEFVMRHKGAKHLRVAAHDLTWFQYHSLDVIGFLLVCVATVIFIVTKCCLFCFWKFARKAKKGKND
# [1] = target: T2, UGT2B7 in pooled human liver microsomes (HLM) (Homo sapiens, UniProt P16662); assay: Inhibition of UGT2B7-mediated hydromorphone glucuronidation by cannabinoids in pooled HLM (screening, IC50, Ki, inhibition type); assay type: biochemical; conditions: for inhibition of HM3G formation (in words) / inhibition of HM3G formation: 100 μM cannabinoid, pooled HLM; for IC50: IC50 corrected for nonspecific binding (fu,inc from refs 32,33; 11-OH-THC fu,inc as surrogate for 7-OH-CBD and 7-COOH-CBD), mean ± SD; for Ki: Ki corrected for nonspecific binding (fu,inc from refs 32,33; 11-OH-THC fu,inc as surrogate for 7-OH-CBD), competitive model, mixed model for 11-OH-THC, read-out: Ki,u; for Inhibition Type: type of reversible inhibition of UGT2B7-mediated hydromorphone metabolism in HLM, Lineweaver-Burk replots; for inhibition of HM3G formation: 400 μM hydromorphone, 2% BSA, vs vehicle control
# T2 sequence (P16662 24-529): T1 sequence (P16662 24-529 Y268H) with H245Y
# [2] = tested on: UGT2B7-mediated hydromorphone metabolism; assay: Static mechanistic IVIVE modeling of cannabinoid-hydromorphone drug interaction (AUCR); set-up: species or system human; conditions: after inhalation and oral consumption of THC and CBD
# [3] = Estimated maximum unbound hepatic inlet plasma concentrations of cannabinoids after oral or inhaled THC or CBD; set-up: species or system human; conditions: doses and Cmax from Bansal et al., 2022, read-out: Cmax,hepatic inlet,u
# Description: [I]h is the inhibitor concentration in the liver and is defined as follows:(7) [I]h=fu,p×(Cmax+Fa×Fg×Ka×Dose/Qh×Rb) where fu,p is the unbound fraction of inhibitor in plasma, and Cmax is the maximal total (free and bound) inhibitor concentration in the plasma.
# UGT2B7^268Tyr [4] = target: T3, UGT2B7^268Tyr (Homo sapiens, UniProt P16662); conditions: rUGT2B7^268Tyr microsomes; for inhibition of HM3G formation: 100 μM cannabinoid, 400 μM hydromorphone, 2% BSA, vs vehicle control; for IC50: read-out: IC50,u, IC50 corrected for nonspecific binding (fu,inc from refs 32,33; 11-OH-THC fu,inc as surrogate for 7-OH-CBD), mean ± SD
# T3 sequence (P16662 24-529): T1 sequence (P16662 24-529 Y268H) with H245Y
# [5] = set value for static model, cited from earlier work; for ka (first-order absorption rate constant): ref Cox et al., 2019
# UGT2B7^268Tyr [6] = conditions: from IC50,u values in rUGT2B7^268Tyr vs rUGT2B7^268His microsomes
# UGT2B7 [7] = target: T4, UGT2B7 (Homo sapiens, UniProt P16662); assay: Inhibition of UGT2B7-mediated hydromorphone glucuronidation by cannabinoids in pooled HLM (screening, IC50, Ki, inhibition type); assay type: biochemical; conditions: human, pooled human liver microsomes
# T4 sequence (P16662 24-529): T1 sequence (P16662 24-529 Y268H) with H245Y
# [8] = ref Bansal et al., 2022, cited from earlier work
# UGT1A9 = tested on: UGT1A9; set-up: method as in Bansal et al., 2023; conditions: enzyme kinetic (HLM); ref Bansal et al., 2023; cited from earlier work
# UGT2B7 [9] = tested on: UGT2B7; set-up: method as in Bansal et al., 2023; conditions: enzyme kinetic (HLM); ref Bansal et al., 2023; cited from earlier work
# CYP1A2 [10] = tested on: CYP1A2; set-up: method as in Bansal et al., 2023; conditions: enzyme kinetic (HLM); ref Bansal et al., 2023; cited from earlier work
# CYP2B6 = tested on: CYP2B6; set-up: method as in Bansal et al., 2023; conditions: enzyme kinetic (HLM); ref Bansal et al., 2023; cited from earlier work
# CYP2C8 = tested on: CYP2C8; set-up: method as in Bansal et al., 2023; conditions: enzyme kinetic (HLM); ref Bansal et al., 2023; cited from earlier work
# CYP2C9 = tested on: CYP2C9; set-up: method as in Bansal et al., 2023; conditions: enzyme kinetic (HLM); ref Bansal et al., 2023; cited from earlier work
# CYP2C19 [11] = tested on: CYP2C19; set-up: method as in Bansal et al., 2023; conditions: enzyme kinetic (HLM); ref Bansal et al., 2023; cited from earlier work
# CYP2D6 = tested on: CYP2D6; set-up: method as in Bansal et al., 2023; conditions: enzyme kinetic (HLM); ref Bansal et al., 2023; cited from earlier work
# CYP3A4 = tested on: CYP3A4; set-up: method as in Bansal et al., 2023; conditions: enzyme kinetic (HLM); ref Bansal et al., 2023; cited from earlier work
# CYP1A2 [12] = tested on: CYP1A2; set-up: method as in Bansal et al., 2020; conditions: ref Bansal et al., 2020, read-out: KI,u (binding-corrected half-maximal inactivation concentration); cited from earlier work
# CYP2C19 [13] = tested on: CYP2C19; set-up: method as in Bansal et al., 2020; conditions: ref Bansal et al., 2020, read-out: KI,u (binding-corrected half-maximal inactivation concentration); cited from earlier work
# CYP3A = tested on: CYP3A; set-up: method as in Bansal et al., 2020; conditions: ref Bansal et al., 2020, read-out: KI,u (binding-corrected half-maximal inactivation concentration); cited from earlier work
# UGT2B7^268Tyr [14] = target: T3, UGT2B7^268Tyr; assay: in vitro
# [15] = cannabidiol PBPK input; ref ChEMBL database (https://www.ebi.ac.uk/); cited from earlier work
# [16] = probe hydromorphone 400 μM (HM3G formation)
# [17] = first-order absorption model, fasted
compound,measurement,setting,value
"CCCCCc1cc(O)c2c(c1)OC(C)(C)[C@@H]1CCC(C)=C[C@@H]21 [THC, Δ^9-tetrahydrocannabinol, reference compound]",inhibition of HM3G formation,UGT2B7^268His,67%
same,IC50,UGT2B7^268His,2920 ± 260 nM
same,inhibition of HM3G formation (in words),[1],only minimal or moderate inhibition
same,IC50,[1]; HLM,2500 ± 580 nM
same,Ki,[1]; HLM,170 ± 20 nM
same,Inhibition Type,[1],Competitive
same,increase in hydromorphone exposure (static modeling),[2],> 1.25 fold
same,Cmax,[3]; THC 20 mg oral,30 nM
same,Cmax,[3]; THC 25 mg inhalation,250 nM
same,Cmax,[3]; THC 70 mg inhalation,690 nM
same,Cmax,[3]; THC 100 mg inhalation,990 nM
same,Cmax,[3]; THC 130 mg oral,200 nM
same,Cmax,[3]; THC 160 mg oral,240 nM
same,inhibition of HM3G formation,UGT2B7^268Tyr [4],45%
same,inhibitory effect on hydromorphone metabolism for the UGT2B7∗2 variant (in words),UGT2B7^268Tyr [4],little to no inhibitory effect
same,ka (first-order absorption rate constant),[5],0.02
same,BP (blood to plasma ratio),"[5]; ref Schwilke et al., 2009",0.4
"C=C(C)[C@@H]1CCC(CO)=C[C@H]1c1c(O)cc(CCCCC)cc1O [7-OH-CBD, 7-hydroxycannabidiol]",inhibition of HM3G formation,UGT2B7^268His,82%
same,IC50,UGT2B7^268His,1390 ± 770 nM
same,inhibition of HM3G formation,[1],87%
same,IC50,[1]; HLM,950 ± 250 nM
same,Ki,[1]; HLM,740 ± 120 nM
same,Inhibition Type,[1],Competitive
same,increase in hydromorphone exposure (static modeling),[2],> 1.25 fold
same,Cmax,[3]; CBD 70 mg oral,30 nM
same,Cmax,[3]; CBD 700 mg oral,340 nM
same,Cmax,[3]; CBD 2000 mg oral,980 nM
same,inhibition of HM3G formation,UGT2B7^268Tyr [4],77%
same,IC50,UGT2B7^268Tyr [4],1260 ± 930 nM
"CCCCCc1cc(O)c2c(c1)OC(C)(C)[C@@H]1CCC(C(=O)O)=C[C@@H]21 [11-COOH-THC, 11-nor-9-carboxy (COOH)-Δ^9-THC]",inhibition of HM3G formation,UGT2B7^268His,49%
same,inhibition of HM3G formation (in words),[1],only minimal or moderate inhibition; also recorded: did not show appreciable inhibition
same,Cmax,[3]; THC 20 mg oral,190 nM
same,Cmax,[3]; THC 25 mg inhalation,70 nM
same,Cmax,[3]; THC 70 mg inhalation,180 nM
same,Cmax,[3]; THC 100 mg inhalation,260 nM
same,Cmax,[3]; THC 130 mg oral,1220 nM
same,Cmax,[3]; THC 160 mg oral,1500 nM
same,inhibition of HM3G formation,UGT2B7^268Tyr [4],27%
11-hydroxy (OH)-Δ^9-THC [11-OH-THC],inhibition of HM3G formation,UGT2B7^268His,98%
same,IC50,UGT2B7^268His,360 ± 30 nM
same,inhibition of HM3G formation,[1],96%
same,α value (mixed inhibition model),"[1]; HLM, GraphPad mixed inhibition model",> 1
same,IC50,[1]; HLM,1080 ± 140 nM
same,Ki,[1]; HLM,1010 ± 180 nM
same,Inhibition Type,[1],mixed type inhibition
same,increase in hydromorphone exposure (static modeling),[2],> 1.25 fold
same,Cmax,[3]; THC 20 mg oral,20 nM
same,Cmax,[3]; THC 25 mg inhalation,10 nM
same,Cmax,[3]; THC 70 mg inhalation,30 nM
same,Cmax,[3]; THC 100 mg inhalation,50 nM
same,Cmax,[3]; THC 130 mg oral,100 nM
same,Cmax,[3]; THC 160 mg oral,120 nM
same,inhibition of HM3G formation,UGT2B7^268Tyr [4],87%
same,IC50,UGT2B7^268Tyr [4],840 ± 190 nM
same,"inhibitory effect against UGT2B7∗2, fold lower than with UGT2B7∗1",UGT2B7^268Tyr [6],2- to 3 fold
"C=C(C)[C@@H]1CCC(C)=C[C@H]1c1c(O)cc(CCCCC)cc1O [CBD, cannabidiol]",IC50,UGT2B7 [7]; [16],140 ± 40 nM
same,inhibition at 100 μM,UGT2B7 [7]; [16],83%
same,Ki,"UGT2B7 [7]; HLM, Ki corrected for nonspecific binding (fu,inc from refs 32,33; 11-OH-THC fu,inc as surrogate for 7-OH-CBD), competitive model, mixed model for 11-OH-THC, read-out: Ki,u",68 ± 3 nM
same,Inhibition Type,[1],Competitive
same,increase in hydromorphone exposure (static modeling),[2],> 1.25 fold
same,Lag time,[8]; fasted,1.5^1 hr
same,fa,[8]; [17],0.25^1
same,ka,[8]; [17],0.55^1 1/hr
same,Fraction unbound in plasma,[8],0.013
same,Qgut,[8],10.24 L/h
same,fugut,[8],0.013
same,"CLint, UGT: UGT1A9",UGT1A9,541 µL/min/mg of protein
same,"CLint, UGT: UGT2B7",UGT2B7 [9],2162 µL/min/mg of protein
same,"CLint, CYP: CYP1A2",CYP1A2 [10],56 µL/min/mg of protein
same,"CLint, CYP: CYP2B6",CYP2B6,46 µL/min/mg of protein
same,"CLint, CYP: CYP2C8",CYP2C8,51 µL/min/mg of protein
same,"CLint, CYP: CYP2C9",CYP2C9,93 µL/min/mg of protein
same,"CLint, CYP: CYP2C19",CYP2C19 [11],193 µL/min/mg of protein
same,"CLint, CYP: CYP2D6",CYP2D6,38 µL/min/mg of protein
same,"CLint, CYP: CYP3A4",CYP3A4,220 µL/min/mg of protein
same,KI (inactivation),CYP1A2 [12],20 nM
same,KI (inactivation),CYP2C19 [13],73 nM
same,KI (inactivation),CYP3A,106 nM
same,ka (first-order absorption rate constant),[5],0.02
same,inhibition at 100 μM,UGT2B7^268Tyr [14],96%
same,Log P,[15],6.33
same,pKa,[15],9.13
C=C(C)[C@@H]1CCC(C(=O)O)=C[C@H]1c1c(O)cc(CCCCC)cc1O [7-COOH-CBD],inhibition of HM3G formation,UGT2B7^268His,60%
same,IC50,UGT2B7^268His,5540 ± 3670 nM
same,inhibition of HM3G formation (in words),[1],only minimal or moderate inhibition
same,IC50,[1]; HLM,> 10000 nM
same,inhibition of HM3G formation,UGT2B7^268Tyr [4],41%
same,inhibitory effect on hydromorphone metabolism for the UGT2B7∗2 variant (in words),UGT2B7^268Tyr [4],little to no inhibitory effect
